Read-outs that look alike come from different tables or passages of the source.
Legend:
Haemonchus contortus = Haemonchus contortus assay (HAEMCO), larval mortality; assay type: cell-based; details: Haemonchus contortus, 120 h; application rate 20 ppm, after 5 days; read-out: activity (percentage of larval mortality)
Protocol: Haemonchus Contortus—Assay (HAEMCO)
(§1) Solvent: dimethyl sulfoxide
(§2) To produce a suitable preparation, 10 mg of active compound are dissolved in 0.5 ml solvent, and the concentrate is diluted with “Ringer's solution” to the desired concentration.
Approximately 40 larvae of the red stomach worm (Haemonchus contortus) are transferred into a test tube containing compound solution.
After 5 days percentage of larval mortality are recorded. 100% efficacy means all larvae are killed, 0% efficacy means no larvae are killed.

[1] = Measurement of LogP values by HPLC on reversed phase columns (EEC directive 79/831 Annex V.A8); assay type: physicochemical; details: acidic range, 0.1% formic acid in water and acetonitrile as eluent; for chromatographic logP: read-out: logP (HCOOH)[a]
[2] = test system: Nippostrongylus brasiliensis; assay: Nippostrongylus brasiliensis assay (NIPOBR), acetylcholine esterase readout; assay type: cell-based; details: read-out: activity (reduction of AChE compared to negative control)
Protocol: Nippostrongylus Brasiliensis—Assay (NIPOBR)
Adult Nippostrongylus brasiliensis were washed with saline buffer containing 100 U/ml penicillin, 0.1 mg/ml streptomycin and 2.5 μg/ml amphotericin B. Test compounds were dissolved in DMSO and worms were incubated in medium in a final concentration of 10 μg/ml (10 ppm) respectively 1 μg/ml (1 ppm). An aliquot of the medium was used to determine the acetylcholine esterase activity in comparison to a negative control. The principle of measuring acetylcholine esterase as readout for anthelmintic activity was described in Rapson et al (1986) and Rapson et al (1987).

Cooperia curticei = Cooperia curticei assay (COOPCU), larval mortality; assay type: cell-based; details: Cooperia curticei, 120 h; application rate 20 ppm, after 5 days; read-out: activity (percentage of larval mortality)
Protocol: Cooperia Curticei—Assay (COOPCU)
as §1, §2
Approximately 40 nematode larvae (Cooperia curticei) are transferred into a test tube containing the compound solution.
After 5 days percentage of larval mortality is recorded. 100% efficacy means all larvae are killed; 0% efficacy means no larvae are killed.

Meloidogyne incognita = Meloidogyne incognita assay (MELGIN), gall formation on salad seedlings; assay type: in vivo; details: application rate 20 ppm, after 14 days
Protocol: Meloidogyne Incognita—Assay (MELGIN)
Solvent: 125.0 parts by weight of acetone
To produce a suitable preparation, 1 part by weight of active compound is mixed with the stated amount of solvent, and the concentrate is diluted with water to the desired concentration.
Vessels are filled with sand, a solution of the active ingredient, a suspension containing eggs and larvae of the southern root-knot nematode (Meloidogyne incognita) and salad seeds. The salad seeds germinate and the seedlings grow. Galls develop in the roots.
After 14 days the nematicidal activity is determined on the basis of the percentage of gall formation. 100% means no galls were found and 0% means the number of galls found on the roots of the treated plants was equal to that in untreated control plants.

| Structure (SMILES) | mortality at 20 ppm (Haemonchus contortus) [%] | chromatographic logP [1] | inhibition at 10 µg/mL [2] [%] | mortality at 20 ppm (Cooperia curticei) [%] | logP (HCOOH)[a] [1] | inhibition at 10 µg/mL ([2]; 10 μg/ml, adult worms) [%] | nematicidal activity (percentage of gall formation) (Meloidogyne incognita) [%] |
| --- | --- | --- | --- | --- | --- | --- | --- |
| O=C(NCC(F)(F)c1ccc(-c2ccc(C(F)(F)F)c(F)c2)cc1Cl)c1ccccc1C(F)(F)F [Example 22] | 90 | 4.62 | ≥ 75 | 100 | – | – | – |
| O=C(NCC(F)(F)c1ccc(-c2ccc(F)c(F)c2)cc1Cl)c1ccccc1C(F)(F)F [Example 33] | 100 | 4.26 | ≥ 75 | 100 | – | – | – |
| O=C(NCC(F)(F)c1ccc(-c2ccc(F)cc2)cc1Cl)c1ccccc1C(F)(F)F [Example 3, N-[2-[2-chloro-4-(4-fluorophenyl)phenyl]-2,2-difluoro-ethyl]-2-(trifluoromethyl)benzamide] | 100 | 4.14 | – | 100 | 4.10 | ≥ 75 | – |
| O=C(NCC(F)(F)c1ccc(-c2ccc(F)c(C(F)(F)F)c2)cc1Cl)c1ccccc1C(F)(F)F [Example 21] | 90 | 4.55 | ≥ 75 | 100 | – | – | – |
| O=C(NCC(F)(F)c1ccc(-c2cc(F)c(F)c(F)c2)cc1Cl)c1ccccc1C(F)(F)F [Example 32] | 100 | 4.44 | ≥ 75 | 100 | – | – | 100 |
| O=C(NCC(F)(F)c1ccc(-c2cc(F)cc(F)c2)cc1Cl)c1ccccc1C(F)(F)F [Example 35] | 100 | 4.3 | ≥ 75 | 100 | – | – | 100 |
| O=C(NCC(F)(F)c1ccc(-c2ccc(SC(F)(F)F)cc2)cc1Cl)c1ccccc1C(F)(F)F [Example 23] | 100 | 4.98 | ≥ 75 | 100 | – | – | – |
| Cc1cc(-c2ccc(F)cc2)ccc1C(F)(F)CNC(=O)c1ccccc1C(F)(F)F [Example 38] | 100 | 4.16 | ≥ 75 | 100 | – | – | 100 |
| N#Cc1ccc(-c2ccc(C(F)(F)CNC(=O)c3ccccc3C(F)(F)F)c(Cl)c2)cc1 [Example 27] | 100 | 3.62 | ≥ 75 | 100 | – | – | 100 |
| O=C(NCC(F)(F)c1ccc(-c2ccc(Cl)cc2)cc1F)c1ccccc1C(F)(F)F [Example 5] | 80 | – | ≥ 75 | 100 | – | – | – |
| O=C(NCC(F)(F)c1ccc(-c2ccc(F)cc2)cc1C(F)(F)F)c1cccnc1C(F)(F)F [Example 17, N-(2,2-Difluoro-2-(4′-fluoro-3-(trifluoromethyl)-[1,1′-biphenyl]-4-yl)ethyl)-2-(trifluoromethyl)-nicotinamide] | 100 | – | ≥ 75 | 100 | – | – | 90 |
| O=C(NCC(F)(F)c1ccc(-c2ccc(Cl)cc2)cc1Cl)c1ccccc1C(F)(F)F [Example 1] | 100 | 4.58 | – | 100 | – | ≥ 75 | – |
| O=C(NCC(F)(F)c1ccc(-c2ccccc2)cc1Cl)c1ccccc1C(F)(F)F [Example 2] | 100 | 4.05 | – | 100 | – | ≥ 75 | – |
| O=C(NCC(F)(F)c1ccc(-c2ccc(F)cc2F)cc1Cl)c1ccccc1C(F)(F)F [Example 36] | 100 | 4.22 | ≥ 75 | 100 | – | – | – |
| N#Cc1ccc(-c2ccc(C(F)(F)CNC(=O)c3ccccc3C(F)(F)F)c(Cl)c2)cc1F [Example 25] | 100 | 3.77 | ≥ 75 | 100 | – | – | 100 |
| COc1cc(-c2ccc(F)cc2)ccc1C(F)(F)CNC(=O)c1ccccc1C(F)(F)F [Example 37] | 90 | 3.89 | ≥ 75 | 100 | – | – | – |
